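These data come from cells grown in 96-well plates and exposed to compound for 48 hours at five concentrations. TGI is the concentration that stops growth completely.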 Where a SMILES comes first, the peptide text is derived from it. [ ]: non-standard residue; d: D form. The star is where a group is joined. ξ: configuration not given here. ξF = NC(Cc1ccccc1)C(=O)O; Cbz = O=C(OCc1ccccc1)*; Aib = CC(C)(N)C(=O)O
Tests used:
Experiment in all cases: NCI tumour cell line growth inhibition, 48 h
[1] = system: SF-295 CNS
[2] = system: A549 NSCLC
[3] = system: LOX IMVI melanoma
[4] = system: DU-145 prostate
[5] = system: MDA-N
[6] = system: PC-3 prostate
[7] = system: SF-539 CNS
[8] = system: HOP-62 NSCLC
[9] = system: 786-0 renal
[10] = system: SK-MEL-2 melanoma
[11] = system: NCI/ADR-RES ovarian

Row | Compound | TGI [1] [µM] | TGI [2] [µM] | TGI [3] [µM] | TGI [4] [µM] | TGI [5] [µM] | TGI [6] [µM] | TGI [7] [µM] | TGI [8] [µM] | TGI [9] [µM] | TGI [10] [µM] | TGI [11] [µM]
1 | CC(C)(NC(=O)OCc1ccccc1)C(=O)NC(Cc1ccccc1)C(=O)O (configuration not stated) (Cbz-[Aib]-[ξF]-OH) | > 100 | > 100 | > 100 | > 100 | > 100 | > 100 | > 100 | > 100 | > 100 | > 100 | > 100
2 | CC(=O)Oc1ccc(/C=C/C(=O)O[C@@H](C)[C@H](C)OC(=O)/C=C/c2ccc(OC(C)=O)c(OC(C)=O)c2)cc1OC(C)=O | 39.3 | > 100 | 29 | > 100 | 89.4 | > 100 | > 100 | 56.3 | > 100 | > 100 | > 100
3 | NCCC(N)C(=O)O (configuration not stated) | > 100 | > 100 | > 100 | > 100 | > 100 | > 100 | > 100 | > 100 | > 100 | > 100 | > 100
4 | Oc1ccc(Cl)cc1C1=N/C(=N\CN2CCN(C/N=C3/N=C(c4cc(Cl)ccc4O)CC(c4ccccc4)N3)CC2)NC(c2ccccc2)C1 (configuration not stated) | 91.7 | > 100 | > 100 | > 100 | > 100 | > 100 | > 100 | > 100 | 65.4 | > 100 | > 100
5 | Cc1ccc(S(=O)(=O)N/C(=C\C=C\c2ccccc2)C(=O)C(C)(C)C)cc1 | > 100 | > 100 | > 100 | > 100 | > 100 | > 100 | > 100 | 44 | 73.6 | > 100 | > 100
6 | Cn1ccnc1Sc1ccc(/C=N/NC(=O)c2ccccc2O)cc1[N+](=O)[O-] | > 100 | > 100 | > 100 | > 100 | > 100 | > 100 | > 100 | > 100 | > 100 | > 100 | > 100
7 | N#CC1=C2Sc3ccccc3N2[C@H](c2ccccc2)[C@H]2COC(=O)[C@@H]12 | > 100 | > 100 | 91.6 | > 100 | > 100 | > 100 | > 100 | > 100 | > 100 | > 100 | > 100

Reference: PubChem BioAssay (NCI)
